Activity calls are given as the source filed them. The calls are words filed in the database; no cut-off is given here.

Test [1] relates to PANC-1. Description: Cytotoxicity against human PANC1 cells in nutrient-deprived medium. Type of test: functional.
For test [2], the system named is PANC-1. Description: Induction of apoptosis in human PANC1 cells assessed as decrease in membrane integrity at 1 nM incubated for 24 hrs by ethidium bromide and acridine orange based phase contrast microscopy analysis. Type of test: functional, cell-based.
In test [3] the test system is PANC-1. Description: Inhibition of cell migration of human PANC1 cells at 10 uM measured after 12 hrs by wound healing assay (reference value: 73 %). Type of test: functional. As to conditions: PANC-1, 12 h.
Test [4] relates to PANC-1. Description: Inhibition of cell migration of human PANC1 cells at 20 uM measured after 12 hrs by wound healing assay (reference value: 73 %). Type of test: functional. As to conditions: PANC-1, 12 h.
The subject of test [5] is PANC-1. Description: Inhibition of cell migration of human PANC1 cells at 10 uM measured after 24 hrs by wound healing assay (reference value: 46 %). Type of test: functional. To be noted: PANC-1, 24 h.
The test system of test [6] is PANC-1. Description: Inhibition of cell migration of human PANC1 cells at 20 uM measured after 24 hrs by wound healing assay (reference value: 46 %). Type of test: functional. As to conditions: PANC-1, 24 h.
Test [7] has as its system PANC-1. Description: Inhibition of cell migration of human PANC1 cells at 10 uM measured after 36 hrs by wound healing assay (reference value: 100 %). To be noted: PANC-1, 36 h. Type of test: functional.
In test [8] the test system is PANC-1. Description: Inhibition of cell migration of human PANC1 cells at 20 uM measured after 36 hrs by wound healing assay (reference value: 100 %). As to conditions: PANC-1, 36 h. Type of test: functional.
For test [9], the system named is PANC-1. Description: Inhibition of cell migration of human PANC1 cells at 10 uM measured after 48 hrs by wound healing assay (reference value: 100 %). Type of test: functional. As to conditions: PANC-1, 48 h.
For test [10], the system named is PANC-1. Description: Inhibition of cell migration of human PANC1 cells at 20 uM measured after 48 hrs by wound healing assay (reference value: 100 %). Type of test: functional. As to conditions: PANC-1, 48 h.
The test system of test [11] is PANC-1. Description: Inhibition of cell migration of human PANC1 cells measured upto 48 hrs by wound healing assay. Type of test: functional, cell-based.
Test [12] relates to PANC-1. Description: Inhibition of colony formation of human PANC1 cells at 2.5 to 10 uM incubated for 24 hrs followed by compound washout and subsequent incubation for 10 days by crystal violet staining based assay. Type of test: functional, cell-based.

As for `C[C@@H]1CC[C@@]23CC[C@]4(C)[C@@](C=C[C@@H]5[C@@]6(C)CC[C@H](O)C(C)(C)[C@@H]6CC[C@]54C)(OC2=O)C3[C@H]1C` (stereo not given in full), the PC50 in the test on PANC-1 [1] amounted to 0.4 µM.
In the test with PANC-1 [1], `C=C(C)[C@@H]1CC[C@]2(CO)CC[C@]3(C)[C@H](CC[C@@H]4[C@@]5(C)CC[C@H](O)C(C)(C)[C@@H]5CC[C@]43C)[C@@H]12` [BETULIN] returned a PC50 of 0.7 µM.
In the test with PANC-1 [1], `COc1cc(C[C@H]2C(=O)OC[C@@H]2Cc2ccc(OC)c(OC)c2)ccc1O` [ARCTIGENIN] yielded a PC50 of 0.7 µM.
In the case of `CC(=O)[C@@H]1CC[C@]2(C(=O)O)CC[C@]3(C)[C@H](CC[C@@H]4[C@@]5(C)CC[C@H](O)C(C)(C)[C@@H]5CC[C@]43C)[C@@H]12` [PLATANIC ACID], in the test with PANC-1 [1], the PC50 came out at 14.2 µM.
Usually inhibition stands for the share of the control response that was lost under treatment. For `CC(C)CC(=O)c1c(O)c2c(c([C@H](C3=C(O)C(C)(C)C(=O)C(C)(C)C3=O)C(C)C)c1O)O[C@]1(C)C=C[C@@H](C(C)C)C[C@H]21`, in the test with PANC-1 [2], the outcome was Active. For the same compound, the inhibition at 10 µM in the test with PANC-1 [3] stood at 87%; in the test with PANC-1 [5], 76%; in the test with PANC-1 [7], 67%; with PANC-1 [9], 65%. The inhibition at 20 µM in the test on PANC-1 [4] came to 96%; in the test on PANC-1 [6], 94%; with PANC-1 [8] it was 89%; with PANC-1 [10], 80%. Moreover, in the test on PANC-1 [11], the inhibition result was “Dose-dependent effect”. Further, the inhibition result in the test on PANC-1 [12] was “Active”.
In turn, `C=C(C)[C@@H]1CC[C@]2(C(=O)O)CC[C@]3(C)[C@H](CC[C@@H]4[C@@]5(C)CC[C@H](O)C(C)(C)[C@@H]5CC[C@]43C)[C@@H]12` [BETULINIC ACID] yielded a PC50 in the test on PANC-1 [1] of 15.2 µM.
For the compound `C[C@H]1[C@H](C)CC[C@]2(CO)CC[C@]3(C)C(=CC[C@@H]4[C@@]5(C)CC[C@H](O)C(C)(C)[C@@H]5CC[C@]43C)[C@H]12` [UVAOL], the PC50 with PANC-1 [1] was 5.2 µM.
For `CC1(C)CC[C@]2(C(=O)O)CC[C@]3(C)C(=CC[C@@H]4[C@@]5(C)CC[C@H](O)C(C)(C)[C@@H]5CC[C@]43C)[C@@H]2C1` [OLEANOLIC_ACID], the PC50 with PANC-1 [1] was determined as 20.5 µM.
As to `C[C@H]1[C@H](C)CC[C@]2(C(=O)O)CC[C@]3(C)C(=CC[C@@H]4[C@@]5(C)CC[C@H](O)C(C)(C)[C@@H]5CC[C@]43C)[C@H]12` [URSOLIC ACID], the PC50 in the test on PANC-1 [1] was 13.7 µM.
Compound `CC1(C)CC[C@]2(CO)CC[C@]3(C)C(=CC[C@@H]4[C@@]5(C)CC[C@H](O)C(C)(C)[C@@H]5CC[C@]43C)[C@@H]2C1` [ERYTHRODIOL] showed a PC50 with PANC-1 [1] of 0.2 µM.

The record behind these values is ChEMBL document CHEMBL4622951, “Chemical constituents of Callistemon citrinus from Egypt and their antiausterity activity against PANC-1 human pancreatic cancer cell line” (2020).
